According to PMC6970549, “Orai1 Channel Inhibition Preserves Left Ventricular Systolic Function and Normal Ca^2+ Handling After Pressure Overload” (Circulation, 2020):

Target: Orai1 (Homo sapiens, UniProt Q96D31)
Test: patch-clamp electrophysiology in Orai1-transfected HEK293 cells
Type: cell-based
Source text: patch-clamp electrophysiology in Orai1-transfected HEK293 cells on Orai1 | Electrophysiological recordings in Orai1-transfected HEK293 cells also confirmed that JPIII is a potent Orai1 inhibitor with an IC50 of […]

Chain of Orai1 (Q96D31 whole entry): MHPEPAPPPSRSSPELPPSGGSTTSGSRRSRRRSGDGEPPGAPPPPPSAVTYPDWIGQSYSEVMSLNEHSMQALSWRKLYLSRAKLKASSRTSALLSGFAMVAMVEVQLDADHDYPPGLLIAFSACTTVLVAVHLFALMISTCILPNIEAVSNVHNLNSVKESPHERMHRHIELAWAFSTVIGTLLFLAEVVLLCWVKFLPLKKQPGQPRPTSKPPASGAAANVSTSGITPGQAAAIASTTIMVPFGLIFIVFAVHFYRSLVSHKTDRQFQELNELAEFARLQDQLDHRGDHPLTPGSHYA

IC50: 244 ± 39 nM
Structure (SMILES): COc1ccc(OC)c(-c2ccc(NCc3ccncc3)cc2)c1 [JPIII, 4-(2,5-dimethoxyphenyl)-N-[(pyridin-4-yl)methyl]aniline]
